Results on one compound are retold here after article PMC8344021, “Discovery of Small Molecule Bak Activator for Lung Cancer Therapy” (Theranostics, 2021).

“Also recorded” adds a separate entry of the source.

Test [1] concerns Cyt c release in A549 cells. As to the kind of experiment: Cyt c release from mitochondria in cells (subcellular fractionation, Western blot). It counts as cell-based, human. The conditions noted are these: 24h. The protocol: To further test whether Bak is required for BKA-073 induction of Cyt c release, A549 parental, Bak^-/-, Bax^-/- and DKO cells were treated with BKA-073 (1 μM) for 24h, followed by analysis of Cyt c release from mitochondria. […] To further test whether BKA-073 directly induces Cyt c release from isolated mitochondria in a Bak- but not Bax-dependent fashion, purified mitochondria were isolated from A549 parental, Bak^-/-, Bax^-/- and DKO cells. The isolated mitochondria were treated with BKA-073 (1 μM) for 30 min at 30 °C. After centrifugation at 13000 g for 5 min, Cyt c in the supernatant (i.e., Cyt c release) was analyzed by Western blot. […]
Bak proteins was eluted with buffer B (20 mM Tris, pH 8.0, 120 mM NaCl, 300 mM imidazole, 10% glycerol with protease inhibitor). The elution peak of interest was checked by SDS -PAGE electrophoresis. The purified mouse Bak protein was dialyzed with buffer A . […]
Subcellular fractionation
Cells (2 ×107) were washed with cold 1× PBS and resuspended in isotonic mitochondrial buffer (210 mM mannitol, 70 mM sucrose, 1 mM EGTA, 10 mM Hepes, pH 7.5) containing 10% protease inhibitor mixture set I, homogenized with a polytron homogenizer, and then centrifuged at 1000 × g for 5 min to remove the nuclei and unbroken cells. The supernatant was centrifuged at 13,000 × g for 10 min to pellet mitochondria. […] Cyt c was analyzed
In general terms: A western blot detects proteins with antibodies after separation by electrophoresis.

Test [2] concerns A549-P, A549-IRR, H358-P, H358-IRR, H460-P and H460-IRR cells. As to the kind of experiment: Colony formation assay in parental and radioresistant cells. It counts as cell-based, human. The conditions noted are these: 0.5 µM. The protocol: To further investigate whether Bak contributes to radioresistance, we established three lung cancer cell lines with ionizing radiation resistance (i.e. A549-IRR, H358-IRR and H460-IRR) as described, [52], [53]. […] A549-P, […] and H460-P cells remained sensitive to IR, but A549-IRR, H358-IRR and H460-IRR became insensitive to IR. […] To further test this in vivo, NSCLC xenografts derived from A549-P and A549-IRR cell lines were treated with IR (2Gy/exposure, every other day for total of 5 times) or BKA-073 (15 mg/kg/d) for 4 weeks. We observed that lung cancer xenografts derived from A549-IRR cells were resistant to IR treatment whereas xenografts derived from A549-P were sensitive to IR treatment (Figure S7C).
Figure S7. BKA-073 overcomes radioresistance of lung cancer in vitro and in vivo. (A) Expression levels of Bak in A549-P versus A549-IRR cells, H358-P versus H358 -IRR cells or H460-P versus H460-IRR cells were analyzed by Western blot. (B) A549-P, A549-IRR, H358-P, H358-IRR, H460-P and H460-IRR cells were treated with IR (5Gy), BKA -073 (0.5 µM), followed by colony formation assay. Data represent the mean ± SD, n = 3 per group. ***P < 0.001, ns: not significant, by 2-tailed t test. […]
Tumor volume was measured once every 2 days. After treatment, mice were sacrificed and tumors were removed and analyzed. […]

Consider `COc1ccc2nc3ccccc3c(NCCNCC(C)O)c2c1` (stereo not shown) [BKA-073], for which the Cyt c release result in test [1] (A549 Bax-/- cells, 1 μM) was “Cyt c release was observed”; in test [1] (A549 parental cells), “promoted Cyt c release from mitochondria; also recorded: Cyt c release was observed”. In addition, the “sensitivity (colony formation)” value is “sensitive” in test [2] (parental cell lines (A549-P, H358-P, H460-P)) and “sensitive” in test [2] (radioresistant cell lines (A549-IRR, H358-IRR, H460-IRR)).
